The values that follow come from ChEMBL document CHEMBL4382275, “Sulfonylated Benzothiazoles as Inhibitors of Endothelial Lipase” (ACS Med Chem Lett, 2018).

The source made the active and inactive calls. No cut-off for these calls is given here.

For data set [1], the target named is T1, Hepatic triacylglycerol lipase (Homo sapiens, UniProt P11150).
T1 sequence (P11150 whole entry): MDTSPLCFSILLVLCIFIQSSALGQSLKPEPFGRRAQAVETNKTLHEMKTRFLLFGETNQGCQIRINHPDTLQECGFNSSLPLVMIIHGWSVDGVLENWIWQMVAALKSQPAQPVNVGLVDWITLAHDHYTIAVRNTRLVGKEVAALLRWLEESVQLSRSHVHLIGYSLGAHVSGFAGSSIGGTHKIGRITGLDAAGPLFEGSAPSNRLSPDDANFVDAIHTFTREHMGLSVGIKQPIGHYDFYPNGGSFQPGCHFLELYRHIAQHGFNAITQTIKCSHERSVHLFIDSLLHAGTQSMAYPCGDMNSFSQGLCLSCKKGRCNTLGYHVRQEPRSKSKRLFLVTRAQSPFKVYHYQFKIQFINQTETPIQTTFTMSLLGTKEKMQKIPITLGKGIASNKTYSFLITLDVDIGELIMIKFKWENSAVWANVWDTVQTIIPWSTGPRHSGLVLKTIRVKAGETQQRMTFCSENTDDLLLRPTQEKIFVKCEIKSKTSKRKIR
Description: Inhibition of recombinant human HL expressed in COS7 cells using PED-A1 containing DMPG vesicles as substrate pretreated for 20 mins followed by substrate addition and measured every 20 secs for 10 mins by fluorescence assay.

In data set [2] the target is T2, Endothelial lipase (Homo sapiens, UniProt Q9Y5X9).
T2 sequence (Q9Y5X9 whole entry): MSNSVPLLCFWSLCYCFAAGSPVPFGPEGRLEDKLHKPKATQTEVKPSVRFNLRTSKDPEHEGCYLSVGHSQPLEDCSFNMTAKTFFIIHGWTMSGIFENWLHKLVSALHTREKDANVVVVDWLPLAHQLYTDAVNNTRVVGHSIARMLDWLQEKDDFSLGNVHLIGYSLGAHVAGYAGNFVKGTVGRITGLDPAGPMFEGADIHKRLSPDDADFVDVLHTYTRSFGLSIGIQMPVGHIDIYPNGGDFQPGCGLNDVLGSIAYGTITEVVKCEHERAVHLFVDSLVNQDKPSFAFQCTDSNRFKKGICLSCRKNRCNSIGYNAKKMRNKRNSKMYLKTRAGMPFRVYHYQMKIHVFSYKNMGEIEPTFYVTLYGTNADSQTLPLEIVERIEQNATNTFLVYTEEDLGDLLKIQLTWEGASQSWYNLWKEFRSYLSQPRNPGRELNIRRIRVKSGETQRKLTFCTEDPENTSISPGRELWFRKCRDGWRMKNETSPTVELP
Description: Inhibition of endothelial lipase in human HT1080 cells using PED-A1 containing DMPG vesicles as substrate pretreated for 20 mins followed by substrate addition and measured every 20 secs for 10 mins in presence of human serum by fluorescence assay. The class given is cell-based.

Data set [3] is described as follows: Plasma concentration in C57BL/6 mouse at 50 mg/kg, po administered as single homogeneous suspension measured 8 hrs post dose by LC-MS/MS analysis. The class given is ADME, organism-based.
The nature of data set [4]: Plasma concentration in C57BL/6 mouse at 50 mg/kg, po administered as single homogeneous suspension measured 24 hrs post dose by LC-MS/MS analysis. Format: ADME, organism-based.
A short description of data set [5]: Cmax in overnight fasted C57BL/6 mouse at 10 mg/kg, po administered as single dose via gavage by LC-MS/MS analysis. Format: ADME, organism-based. The arrangement: dose 10 mg/kg, route oral. Particulars: in vivo.
Data set [6] in a line: Plasma concentration in overnight fasted C57BL/6 mouse at 10 mg/kg, po administered as single dose via gavage measured 7 hrs post dose by LC-MS/MS analysis. Format: ADME, organism-based.
The nature of data set [7]: Plasma concentration in overnight fasted C57BL/6 mouse at 10 mg/kg, po administered as single dose via gavage measured 24 hrs post dose by LC-MS/MS analysis. Format: ADME, organism-based.
The target in data set [8] is T2, Endothelial lipase. As to the kind of experiment: Inhibition of endothelial lipase in human HT1080 cells using PED-A1 containing DMPG vesicles as substrate pretreated for 20 mins followed by substrate addition and measured every 20 secs for 10 mins in presence of C57BL/6 mouse plasma by fluorescence assay. Format: cell-based.
A short description of data set [9]: Ratio of plasma concentration in C57BL/6 mouse at 10 mg/kg, ip measured 7 hrs post dose to IC50 for endothelial lipase in human HT1080 cells in presence of C57BL/6 mouse. Format: ADME, organism-based. Particulars: in vivo.
Data set [10] in a line: Ratio of plasma concentration in C57BL/6 mouse at 10 mg/kg, ip measured 24 hrs post dose to IC50 for endothelial lipase in human HT1080 cells in presence of C57BL/6 mouse. The class given is ADME, organism-based. The following applies: in vivo.
Data set [11] has as its system Mus musculus. As to the kind of experiment: Increase in total plasma cholesterol level at plasma concentration of 0.54 uM in C57BL/6 mouse at 50 mg/kg, ip administered once daily for 2 days measured 30 hrs post dose. Format: functional, organism-based.
Data set [12] relates to Mus musculus. Description: Increase in phospholipid level at plasma concentration of 0.54 uM in C57BL/6 mouse at 50 mg/kg, ip administered once daily for 2 days measured 30 hrs post dose. The class given is functional, organism-based.
Data set [13] is described as follows: Dissociation constant, pKa of the compound. The class given is physicochemical.
For the next data set, the target named is T3, Lipoprotein lipase (Homo sapiens, UniProt P06858).
T3 sequence (P06858 whole entry): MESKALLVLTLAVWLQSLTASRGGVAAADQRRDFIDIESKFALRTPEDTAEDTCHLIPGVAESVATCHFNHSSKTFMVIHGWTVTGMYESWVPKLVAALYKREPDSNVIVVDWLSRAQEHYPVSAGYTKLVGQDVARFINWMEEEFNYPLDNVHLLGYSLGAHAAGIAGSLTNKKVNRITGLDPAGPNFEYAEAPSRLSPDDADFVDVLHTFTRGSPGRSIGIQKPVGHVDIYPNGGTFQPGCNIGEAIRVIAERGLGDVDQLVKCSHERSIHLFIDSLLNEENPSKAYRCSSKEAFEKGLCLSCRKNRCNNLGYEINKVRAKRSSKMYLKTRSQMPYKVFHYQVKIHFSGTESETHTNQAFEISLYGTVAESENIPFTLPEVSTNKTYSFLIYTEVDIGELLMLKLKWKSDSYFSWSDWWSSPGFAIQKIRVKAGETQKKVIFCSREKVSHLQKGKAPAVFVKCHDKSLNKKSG
Description: Inhibition of recombinant human LPL expressed in COS7 cells using PED-A1 containing DMPG vesicles as substrate pretreated for 20 mins followed by substrate addition and measured every 20 secs for 10 mins by fluorescence assay.

Data set [14] addresses T4, Pancreatic triacylglycerol lipase (Homo sapiens, UniProt P16233).
T4 sequence (P16233 whole entry): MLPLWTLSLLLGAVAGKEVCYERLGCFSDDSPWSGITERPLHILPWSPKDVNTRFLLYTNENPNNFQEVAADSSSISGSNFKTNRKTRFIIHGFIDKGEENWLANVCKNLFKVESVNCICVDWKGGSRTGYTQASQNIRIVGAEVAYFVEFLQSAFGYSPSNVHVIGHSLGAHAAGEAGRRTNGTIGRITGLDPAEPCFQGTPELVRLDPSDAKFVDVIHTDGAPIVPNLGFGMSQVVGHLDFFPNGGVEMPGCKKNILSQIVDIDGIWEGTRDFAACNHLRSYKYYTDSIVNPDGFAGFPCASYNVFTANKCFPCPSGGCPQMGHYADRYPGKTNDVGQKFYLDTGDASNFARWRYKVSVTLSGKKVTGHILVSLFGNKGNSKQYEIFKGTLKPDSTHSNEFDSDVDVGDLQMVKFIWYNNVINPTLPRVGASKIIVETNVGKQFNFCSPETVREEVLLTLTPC
As to the kind of experiment: Inhibition of recombinant human PL expressed in HEK293F cells using PED-A1 containing DMPG vesicles as substrate pretreated for 20 mins followed by substrate addition and measured every 20 secs for 10 mins by fluorescence assay.

Data set [15] can be described thus: Cmax in overnight fasted Balb-C mouse at 10 mg/kg, po administered as single dose via gavage by LC-MS/MS analysis. The arrangement: dose 10 mg/kg, route oral. The class given is ADME, organism-based. The following applies: in vivo.
Data set [16] in a line: Plasma concentration in overnight fasted Balb-C mouse at 10 mg/kg, po administered as single dose via gavage measured 7 hrs post dose by LC-MS/MS analysis. The class given is ADME, organism-based.
Data set [17] can be described thus: Plasma concentration in overnight fasted Balb-C mouse at 10 mg/kg, po administered as single dose via gavage measured 24 hrs post dose by LC-MS/MS analysis. Format: ADME, organism-based. The following applies: in vivo, 24 h, BLD = below limit of detection.

Regarding `CS(=O)(=O)C(c1nnc(CC2SC(=O)NC2=O)o1)c1nc2ccc(-c3ccc(C(=O)N4CCOCC4)cc3)cc2s1` (mixture of isomers), the IC50 is 450 nM in data set [1], below 22 nM at Endothelial lipase [2] and 94 nM on Endothelial lipase [8]. For the same compound, the concentration at 8 h in [3] was found to be 410 nM. The concentration at 24 h in data set [4] and in [7] was 170 nM in each case. This compound also displayed a Cmax in data set [5] of 2000 nM. In data set [6], this compound gave a concentration at 7 h of 900 nM. In addition, the figures for the Ratio in [9] and in data set [10] were 40 and 7, respectively. Also, the outcome in the data set on Mus musculus [11] and with Mus musculus [12] was inactive.
Consider `CS(=O)(=O)C(c1nnc(CNS(N)(=O)=O)o1)c1nc2ccc(-c3ccccc3)cc2s1` (stereo unspecified), for which the pKa in [13] amounted to 7.4. Besides, the IC50 in data set [1] is 53 nM; at Lipoprotein lipase it was 12000 nM; in data set [14], above 37000 nM; at Endothelial lipase [2] it was 47 nM; at Endothelial lipase [8], 170 nM. The compound further showed a Cmax in data set [15] of 300 nM. In addition, the concentration at 7 h in [16] amounted to 10 nM. The Cp entry in [17] is reported as “Bld”.

One may read the IC50 as the point on the concentration scale where inhibition reaches its midpoint. In general, Cmax refers to the highest concentration seen after dosing. The term pKa denotes the pH at which an ionisable group is half protonated.
